Results: patent publication US11253634B2, “Cationic steroidal antibiotic compositions for the treatment of dermal tissue” (BRIGHAM YOUNG UNIVERSITY, priority 2016, dated 2022)
In brackets after ≈: the same amount, converted by molar mass. Blank lines part the entries; values can stand above or below the compound they belong to.

Experiments:
primary human MSC cells = assay: Gene expression (q-PCR, inflammation-related mRNA panel) after CSA treatment of primary cells; format: cell-based; conditions: 8 hours treatment, CSA-13 at 5.0 μM; for Fold Regulation, IL1A: gene IL1A (Interleukin-1 alpha); for Fold Regulation, IL1A / Fold Regulation, IL1B / Fold Regulation, IRAK2 / Fold Regulation, NFKBIA / Fold Regulation, TLR2 / Fold Regulation, TLR4 / Fold Regulation, TLR6 / Fold Regulation, TLR8 / Fold Regulation, TLR9 / Fold Regulation, TNF / Fold Regulation, TNFRSF1A: q-PCR; for Fold Regulation, IL1B: gene IL1B (Interleukin-1 beta); for Fold Regulation, IRAK2: gene IRAK2 (Interleukin-1 receptor-associated kinase 2); for Fold Regulation, NFKB1: gene NFKB1, q-PCR; for Fold Regulation, NFKB2: gene NFKB2, q-PCR; for Fold Regulation, NFKBIA: gene NFKBIA; for Fold Regulation, TLR2: gene TLR2 (Toll-like receptor 2); for Fold Regulation, TLR4: gene TLR4 (Toll-like receptor 4); for Fold Regulation, TLR6: gene TLR6 (Toll-like receptor 6); for Fold Regulation, TLR8: gene TLR8 (Toll-like receptor 8); for Fold Regulation, TLR9: gene TLR9 (Toll-like receptor 9); for Fold Regulation, TNF: gene TNF (Tumor necrosis factor); for Fold Regulation, TNFRSF1A: gene TNFRSF1A
Staphylococcus aureus = assay: MIC/MBC against mixed-species biofilms: S. aureus; format: cell-based; conditions: mixed-species biofilms grown 22 hours, 20 hours of treatment
Procedure: (§1) Several CSA compounds were tested against Pseudomonas aeruginosa and Staphylococcus aureus mixed-species biofilms grown for an initial 22 hours and subjected to 20 hours of treatment.

Pseudomonas aeruginosa = assay: MIC/MBC against mixed-species biofilms: P. aeruginosa; format: cell-based; conditions: mixed-species biofilms grown 22 hours, 20 hours of treatment
Procedure: as §1

IL-6 = assay: Kidney IL-6 levels in P. aeruginosa pneumonia model; format: in vivo, C57/BL6 mice; conditions: 24 hours post-infection
Excerpt: IL-6 is a marker of systemic inflammation. Female C57/BL6 mice were infected in the respiratory tract with a non-lethal dose of P. aeruginosa as a model of pneumonia.

[1] = Solubility of CSA-131 salt in cyanoacrylate; format: physicochemical
Procedure: CSA-131 (bis-DNS salt) was used in this Example. This material is a stable, colorless solid and is insoluble in cyanoacrylate. To ensure uniform distribution of CSA-131 in the cyanoacrylate polymer, the solid was micronized using a jet mill to give an average particle size of 200 nm. The resulting powder was added to cyanoacrylate to give a 5% (w/w) mixture, which was vigorously agitated. No immediate change in viscosity was observed, and the mixture remained non-viscous for more than 15 min.

Enterobacteriaceae (22) = assay: Broth microdilution susceptibility testing, Enterobacteriaceae isolates; format: cell-based; conditions: unit inferred, unit assumed
Procedure: (§2) CSA-131 was tested in vitro against a set of clinical isolates representing bacterial species commonly associated with hospital-acquired infections. Antimicrobial susceptibility testing for 74 clinical isolates was performed.

Non-fermenters (22) = assay: Broth microdilution susceptibility testing, non-fermenter isolates; format: cell-based, A. baumannii species complex, P. aeruginosa, S. maltophilia; conditions: unit inferred, unit assumed
Procedure: as §2

[2] = test system: Streptococcus Pneumoniae (10); assay: Broth microdilution susceptibility testing, S. pneumoniae isolates; format: cell-based; conditions: unit inferred, unit assumed
Procedure: as §2

[3] = test system: 74 clinical isolates (All); assay: Broth microdilution susceptibility testing, all clinical isolates; format: cell-based; conditions: All (74) isolates; no unit in column head (MIC levels of table in μg/ml)
Procedure: as §2

[4] = test system: Staphylococcus aureus (10); assay: Broth microdilution susceptibility testing, S. aureus isolates; format: cell-based; conditions: unit inferred, unit assumed
Procedure: as §2

Haemophilus spp. (10) = assay: Broth microdilution susceptibility testing, Haemophilus spp. isolates; format: cell-based, H. influenza and H. parainfluenzae; conditions: unit inferred, unit assumed
Procedure: as §2

SMILES: CCCCCCCCOC(=O)CC[C@@H](C)[C@H]1CC[C@H]2[C@@H]3[C@H](OC(=O)CCN)C[C@@H]4C[C@H](OC(=O)CCN)CC[C@]4(C)[C@H]3C[C@H](OC(=O)CCN)[C@]12C [CSA-44]
Fold Regulation, IL1A (primary human MSC cells): −6.0325 fold | Fold Regulation, IL1B (primary human MSC cells): −28.5329 fold | Fold Regulation, IRAK2 (primary human MSC cells): −31.8021 fold | Fold Regulation, NFKB1 (primary human MSC cells): −3.2891 fold | Fold Regulation, NFKB2 (primary human MSC cells): −2.2766 fold | Fold Regulation, NFKBIA (primary human MSC cells): −52.206 fold | Fold Regulation, TLR2 (primary human MSC cells): −15.7179 fold | Fold Regulation, TLR4 (primary human MSC cells): −2.977 fold | Fold Regulation, TLR6 (primary human MSC cells): −2.392 fold | Fold Regulation, TLR8 (primary human MSC cells): −8.2256 fold | Fold Regulation, TLR9 (primary human MSC cells): −1.8905 fold | Fold Regulation, TNF (primary human MSC cells): −25.9588 fold | Fold Regulation, TNFRSF1A (primary human MSC cells): −2.2461 fold

SMILES: CCCCCCCCCCCCCNCCC[C@@H](C)[C@H]1CC[C@H]2[C@@H]3[C@H](OCCCN)C[C@@H]4C[C@H](OCCCN)CC[C@]4(C)[C@H]3C[C@H](OCCCN)[C@]12C [CSA-138]
MBC S. aureus (Staphylococcus aureus): 3.125 µg/mL (≈ 4.18 µM) | MIC S. aureus (Staphylococcus aureus): 1.56 µg/mL (≈ 2.09 µM) | MBC P. aeruginosa (Pseudomonas aeruginosa): 6.25 µg/mL (≈ 8.36 µM) | MIC P. aeruginosa (Pseudomonas aeruginosa): 3.125 µg/mL (≈ 4.18 µM)

SMILES: CCCCCCCCNCCC[C@@H](C)[C@H]1CC[C@H]2[C@@H]3[C@H](OCCCN)C[C@@H]4C[C@H](OCCCN)CC[C@]4(C)[C@H]3C[C@H](OCCCN)[C@]12C [CSA-13]
Effect of treatment on kidney IL-6 levels (IL-6): significantly reduced

SMILES: CCCCCCCCCOC(=O)CC[C@@H](C)[C@H]1CC[C@H]2[C@@H]3[C@H](OC(=O)CCN)C[C@@H]4C[C@H](OC(=O)CCN)CC[C@]4(C)[C@H]3C[C@H](OC(=O)CCN)[C@]12C [CSA-145]
MBC S. aureus (Staphylococcus aureus): 3.125 µg/mL (≈ 4.18 µM) | MIC S. aureus (Staphylococcus aureus): 3.125 µg/mL (≈ 4.18 µM) | MBC P. aeruginosa (Pseudomonas aeruginosa): 50 µg/mL (≈ 66.8 µM) | MIC P. aeruginosa (Pseudomonas aeruginosa): 12.5 µg/mL (≈ 16.7 µM)

SMILES: CCCCCCCCCCCCNCCCC(C)C1CCC2C3C(OCCCN)CC4CC(OCCCN)CCC4(C)C3CC(OCCCN)C12C.O=S(=O)(O)c1cccc2c(S(=O)(=O)O)cccc12.O=S(=O)(O)c1cccc2c(S(=O)(=O)O)cccc12 (centres unmarked) [CSA-131 (bis-DNS salt)]
Solubility in cyanoacrylate [1]: insoluble

SMILES: CCCCCN(CCCCC)CCCC(C)C1CCC2C3C(OCCCN)CC4CC(OCCCN)CCC4(C)C3CC(OCCCN)C12C.Cl.Cl.Cl.Cl (centres unmarked) [CSA-90]
Fold Regulation, IL1A (primary human MSC cells): −6.96 fold | Fold Regulation, IL1B (primary human MSC cells): −3.6734 fold | Fold Regulation, IRAK2 (primary human MSC cells): −52.0069 fold | Fold Regulation, NFKB1 (primary human MSC cells): −4.718 fold | Fold Regulation, NFKB2 (primary human MSC cells): −2.5474 fold | Fold Regulation, NFKBIA (primary human MSC cells): −26.0352 fold | Fold Regulation, TLR2 (primary human MSC cells): −13.6933 fold | Fold Regulation, TLR4 (primary human MSC cells): −3.4278 fold | Fold Regulation, TLR6 (primary human MSC cells): −2.0885 fold | Fold Regulation, TLR8 (primary human MSC cells): −4.1972 fold | Fold Regulation, TLR9 (primary human MSC cells): −1.8613 fold | Fold Regulation, TNF (primary human MSC cells): −4.8514 fold | Fold Regulation, TNFRSF1A (primary human MSC cells): −7.3196 fold | MBC S. aureus (Staphylococcus aureus): 1.56 µg/mL | MIC S. aureus (Staphylococcus aureus): 1.56 µg/mL | MBC P. aeruginosa (Pseudomonas aeruginosa): 6.25 µg/mL | MIC P. aeruginosa (Pseudomonas aeruginosa): 6.25 µg/mL

SMILES: CCCCCCCCCCCCNCCC[C@@H](C)[C@H]1CC[C@H]2[C@@H]3[C@H](OCCCN)C[C@@H]4C[C@H](OCCCN)CC[C@]4(C)[C@H]3C[C@H](OCCCN)[C@]12C.Cl.Cl.Cl.Cl [CSA-131]
MIC50 (Enterobacteriaceae (22)): 4 µg/mL | MIC90 (Enterobacteriaceae (22)): 4 µg/mL | MIC50 (Non-fermenters (22)): 4 µg/mL | MIC90 (Non-fermenters (22)): 4 µg/mL | MIC50 [2]: 4 µg/mL | MIC90 [2]: 4 µg/mL | MIC50 [3]: 4 | MIC90 [3]: 8 | MIC50 [4]: 2 µg/mL | MIC90 [4]: 2 µg/mL | MIC50 (Haemophilus spp. (10)): 8 µg/mL | MIC90 (Haemophilus spp. (10)): 8 µg/mL

Further lines, with some results ahead:

MIC S. aureus (Staphylococcus aureus): 3.125 µg/mL (≈ 4.1 µM) | MIC P. aeruginosa (Pseudomonas aeruginosa): 12.5 µg/mL (≈ 16.4 µM)
SMILES: CCCCCCCCCCOC(=O)CC[C@@H](C)[C@H]1CC[C@H]2[C@@H]3[C@H](OC(=O)CCN)C[C@@H]4C[C@H](OC(=O)CCN)CC[C@]4(C)[C@H]3C[C@H](OC(=O)CCN)[C@]12C [CSA-144]
MBC S. aureus (Staphylococcus aureus): 3.125 µg/mL (≈ 4.1 µM) | MBC P. aeruginosa (Pseudomonas aeruginosa): 50 µg/mL (≈ 65.6 µM)

MIC S. aureus (Staphylococcus aureus): 50 µg/mL | MIC P. aeruginosa (Pseudomonas aeruginosa): >200 µg/mL
SMILES: CC(O)C1CCC2C3C(OCCCN)CC4CC(OCCCN)CCC4(C)C3CC(OCCCN)C12C.Cl.Cl.Cl (centres unmarked) [CSA-11]
MBC S. aureus (Staphylococcus aureus): 50 µg/mL | MBC P. aeruginosa (Pseudomonas aeruginosa): >200 µg/mL

MIC S. aureus (Staphylococcus aureus): 3.125 µg/mL | MIC P. aeruginosa (Pseudomonas aeruginosa): 25 µg/mL
SMILES: CC(CCCO)C1CCC2C3C(OCCCN)CC4CC(OCCCN)CCC4(C)C3CC(OCCCN)C12C.Cl.Cl.Cl (centres unmarked) [CSA-8]
MBC S. aureus (Staphylococcus aureus): 6.25 µg/mL | MBC P. aeruginosa (Pseudomonas aeruginosa): 100 µg/mL

MIC S. aureus (Staphylococcus aureus): 6.25 µg/mL | MIC P. aeruginosa (Pseudomonas aeruginosa): 50 µg/mL
SMILES: CC(CCCNCCCNCCCN)C1CCC2C3C(OCCCN)CC4CC(OCCCN)CCC4(C)C3CC(OCCCN)C12C.Cl.Cl.Cl.Cl.Cl.Cl (centres unmarked) [CSA-54]
MBC S. aureus (Staphylococcus aureus): 25 µg/mL | MBC P. aeruginosa (Pseudomonas aeruginosa): 100 µg/mL
